Assay results: PMC5053523, “In Vitro Antibacterial Activity of Rhodanine Derivatives against Pathogenic Clinical Isolates” (PLoS ONE, 2016)
≈ marks a conversion by molar mass, not a printed value.

Key:
Format in all cases: cell-based
Salmonella Typhimurium [1] = assay: MIC with/without PMBN, Salmonella Typhimurium
Procedure: (§1) The MIC of the rhodanines and control antibiotics, in the presence of a sub-inhibitory concentration of colistin or polymixin B nonapeptide (PMBN), against Gram-negative bacteria was evaluated as described before. The antibacterial activity of the rhodanines was further investigated against E. coli SM1411Δ acrAB, a strain that is deficient in the multidrug-resistant AcrAB efflux pump, as described before.

Escherichia coli O157:H7 [2] = assay: MIC with/without PMBN, Escherichia coli O157:H7
Procedure: as §1

Salmonella Typhimurium [3] = assay: MIC with/without sub-MIC colistin, Salmonella Typhimurium
Procedure: as §1

Pseudomonas aeruginosa [4] = assay: MIC with/without sub-MIC colistin, Pseudomonas aeruginosa
Procedure: as §1

Klebsiella pneumoniae [5] = assay: MIC with/without PMBN, Klebsiella pneumoniae
Procedure: as §1

Klebsiella pneumoniae [6] = assay: MIC with/without sub-MIC colistin, Klebsiella pneumoniae
Procedure: as §1

Escherichia coli Δ acrAB = assay: MIC against E. coli 1411 and AcrAB efflux pump deficient E. coli SM1411Δ acrAB
Procedure: as §1

Acinetobacter baumannii [7] = assay: MIC with/without PMBN, Acinetobacter baumannii
Procedure: as §1

Acinetobacter baumannii [8] = assay: MIC with/without sub-MIC colistin, Acinetobacter baumannii
Procedure: as §1

Escherichia coli O157:H7 [9] = assay: MIC with/without sub-MIC colistin, Escherichia coli O157:H7
Procedure: as §1

Pseudomonas aeruginosa [10] = assay: MIC with/without PMBN, Pseudomonas aeruginosa
Procedure: as §1

[11] = Salmonella Typhimurium ATCC 700720, PMBN (+) 4 μg/mL, read-out: MIC
[12] = Escherichia coli O157:H7 ATCC 35150, PMBN (+) 4 μg/mL, read-out: MIC
[13] = Escherichia coli O157:H7 ATCC 700728, PMBN (+) 4 μg/mL, read-out: MIC
[14] = Salmonella Typhimurium ATCC 700720, colistin (+) […], read-out: MIC
[15] = Pseudomonas aeruginosa ATCC 921, colistin (+) […], read-out: MIC
[16] = Klebsiella pneumoniae ATCC BAA 1706, PMBN (+) 4 μg/mL
[17] = Klebsiella pneumoniae ATCC BAA 2146, PMBN (+) 4 μg/mL
[18] = Klebsiella pneumoniae ATCC BAA 2146, colistin (+) […]
[19] = E.coli 1411 SM (Δ acrAB, AcrAB efflux pump deficient)
[20] = Acinetobacter baumannii ATCC BAA747, PMBN (+) 4 μg/mL, read-out: MIC
[21] = Acinetobacter baumannii ATCC BAA19606, PMBN (+) 4 μg/mL, read-out: MIC
[22] = Acinetobacter baumannii ATCC BAA747, colistin (+) […], read-out: MIC
[23] = Acinetobacter baumannii ATCC BAA19606, colistin (+) […], read-out: MIC
[24] = Escherichia coli O157:H7 ATCC 35150, colistin (+) […], read-out: MIC
[25] = Escherichia coli O157:H7 ATCC 700728, colistin (+) […], read-out: MIC
[26] = Pseudomonas aeruginosa ATCC 9721, PMBN (+) 4 μg/mL, read-out: MIC
[27] = Salmonella enterica, ATCC 700720 / TYPHIMURIUM
[28] = Acinetobacter baumannii, ATCCBAA747
[29] = Acinetobacter baumannii, ATCCBAA19606

Compound | MIC (Salmonella Typhimurium [1]; [11]) [µM] | MIC (Escherichia coli O157:H7 [2]; [12]) [µM] | MIC (Escherichia coli O157:H7 [2]; [13]) [µM] | MIC (Escherichia coli O157:H7 [2]; Escherichia coli, ATCC35150) [µM] | MIC (Escherichia coli O157:H7 [2]; Escherichia coli, ATCC700728) [µM] | MIC (Salmonella Typhimurium [3]; [14]) [µM] | MIC (Pseudomonas aeruginosa [4]; [15]) [µM] | MIC (Klebsiella pneumoniae [5]; [16]) [µM] | MIC (Klebsiella pneumoniae [5]; [17]) [µM] | MIC (Klebsiella pneumoniae [5]; Klebsiella pneumoniae, BAA1706) [µM] | MIC (Klebsiella pneumoniae [5]; Klebsiella pneumoniae, BAA2146) [µM] | MIC (Klebsiella pneumoniae [6]; [18]) [µM] | MIC (Klebsiella pneumoniae [6]; Klebsiella pneumoniae, BAA2146) [µM] | MIC (Escherichia coli Δ acrAB; E.coli 1411) [µM] | MIC (Escherichia coli Δ acrAB; [19]) [µM] | MIC (Acinetobacter baumannii [7]; [20]) [µM] | MIC (Acinetobacter baumannii [7]; [21]) [µM] | MIC (Acinetobacter baumannii [8]; [22]) [µM] | MIC (Acinetobacter baumannii [8]; [23]) [µM] | MIC (Escherichia coli O157:H7 [9]; [24]) [µM] | other results
CC[C@H]1OC(=O)[C@H](C)[C@@H](O[C@H]2C[C@@](C)(OC)[C@@H](O)[C@H](C)O2)[C@H](C)[C@@H](O[C@@H]2O[C@H](C)C[C@H](N(C)C)[C@H]2O)[C@](C)(O)C[C@@H](C)C(=O)[C@H](C)[C@@H](O)[C@]1(C)O [Erythromycin, erythromycin, reference compound] | 4 (≈ 2.94 µg/mL) | 4 (≈ 2.94 µg/mL) | 2 (≈ 1.47 µg/mL) | 128 (≈ 93.9 µg/mL) | 32 (≈ 23.5 µg/mL) | 16 (≈ 11.7 µg/mL) | 16 (≈ 11.7 µg/mL) | 64 (≈ 47 µg/mL) | >64 | > 128 | > 128 | >64 | > 128 | > 64 | 2 (≈ 1.47 µg/mL) | ≤0.5 | 2 (≈ 1.47 µg/mL) | 1 (≈ 0.734 µg/mL) | 2 (≈ 1.47 µg/mL) | ≤0.5 | MIC (Salmonella Typhimurium [1]; Salmonella enterica, ATCC 700720 / TYPHIMURIUM, Salmonella Typhimurium ATCC 700720, PMBN (-), read-out: MIC): 64 µM (≈ 47 µg/mL); MIC (Salmonella Typhimurium [3]; Salmonella enterica, ATCC 700720 / TYPHIMURIUM, Salmonella Typhimurium ATCC 700720, colistin (-), read-out: MIC): 64 µM (≈ 47 µg/mL); MIC (Pseudomonas aeruginosa [4]; ATCC921, Pseudomonas aeruginosa ATCC 921, colistin (-), read-out: MIC): 64 µM (≈ 47 µg/mL); MIC (Acinetobacter baumannii [7]; ATCCBAA747, Acinetobacter baumannii ATCC BAA747, PMBN (-), read-out: MIC): 4 µM (≈ 2.94 µg/mL); MIC (Acinetobacter baumannii [7]; ATCCBAA19606, Acinetobacter baumannii ATCC BAA19606, PMBN (-), read-out: MIC): 16 µM (≈ 11.7 µg/mL); MIC (Acinetobacter baumannii [8]; ATCCBAA747, Acinetobacter baumannii ATCC BAA747, colistin (-), read-out: MIC): 4 µM (≈ 2.94 µg/mL); MIC (Acinetobacter baumannii [8]; ATCCBAA19606, Acinetobacter baumannii ATCC BAA19606, colistin (-), read-out: MIC): 16 µM (≈ 11.7 µg/mL); MIC (Escherichia coli O157:H7 [9]; [25]): ≤0.5 µM; MIC (Escherichia coli O157:H7 [9]; Escherichia coli, ATCC35150): 32 µM (≈ 23.5 µg/mL); MIC (Escherichia coli O157:H7 [9]; Escherichia coli, ATCC700728): 32 µM (≈ 23.5 µg/mL); MIC (Pseudomonas aeruginosa [10]; ATCC9721, Pseudomonas aeruginosa ATCC 9721, PMBN (-), read-out: MIC): 64 µM (≈ 47 µg/mL); MIC (Pseudomonas aeruginosa [10]; [26]): 1 µM (≈ 0.734 µg/mL)
CC(=O)O[C@H]1C[C@@]2(C)[C@@H](C[C@@H](O)[C@H]3[C@@]4(C)CC[C@@H](O)[C@@H](C)[C@@H]4CC[C@@]32C)/C1=C(\CCC=C(C)C)C(=O)O [Fusidic acid, fusidic acid, reference compound] | 64 (≈ 33.1 µg/mL) | 4 (≈ 2.07 µg/mL) | 32 (≈ 16.5 µg/mL) | > 256 | > 128 | 64 (≈ 33.1 µg/mL) | >64 | 16 (≈ 8.27 µg/mL) | >64 | > 128 | > 128 | >64 | > 128 | > 64 | 4 (≈ 2.07 µg/mL) | 2 (≈ 1.03 µg/mL) | 2 (≈ 1.03 µg/mL) | 1 (≈ 0.517 µg/mL) | ≤0.5 | ≤0.5 | MIC (Salmonella Typhimurium [1]; [27]): > 128 µM; MIC (Salmonella Typhimurium [3]; [27]): > 128 µM; MIC (Pseudomonas aeruginosa [4]; Pseudomonas aeruginosa, ATCC921): > 128 µM; MIC (Acinetobacter baumannii [7]; [28]): > 128 µM; MIC (Acinetobacter baumannii [7]; [29]): 128 µM (≈ 66.1 µg/mL); MIC (Acinetobacter baumannii [8]; [28]): > 128 µM; MIC (Acinetobacter baumannii [8]; [29]): 128 µM (≈ 66.1 µg/mL); MIC (Escherichia coli O157:H7 [9]; [25]): ≤0.5 µM; MIC (Escherichia coli O157:H7 [9]; Escherichia coli, ATCC35150): > 128 µM; MIC (Escherichia coli O157:H7 [9]; Escherichia coli, ATCC700728): > 128 µM; MIC (Pseudomonas aeruginosa [10]; [26]): 4 µM (≈ 2.07 µg/mL); MIC (Pseudomonas aeruginosa [10]; Pseudomonas aeruginosa, ATCC9721): > 128 µM
